“Also recorded” adds a separate entry of the source.
System: tropical house mosquito Culex quinquefasciatus (adults, 3 days old)
Assay: Efficacy of formulations on surfaces (glazed/unglazed tiles, plywood), ten 3 day old mosquitoes, 3 min exposure
Format: in vivo
Conditions: for % KD and Mortality: in acetone on glazed tiles, Table 84; for efficacy enhancement of the insecticide by the additive (summary in words): Culex quinquefasciatus, 3 min exposure, mostly 0.1% bendiocarb + 1% additive on glazed tiles, details as worded
Procedure: The ingredients were diluted in acetone to give a concentration which corresponds to the desired quantity of a.i./m^2. A 1 ml quantity of the solution was applied by pipette onto the 15 cm×15 cm surfaces without treating the outer edge of 1 cm.
(§1) Ten 3 day old Culex quinquefasciatus mosquitoes were exposed to each treatment for 3 minutes under a perforated petri dish, and then a clean untreated white paper index card was moved between treated surface and petri dish. A water-soaked cotton pad was applied immediately after.
Each test consisted of three replicates (three batches of ten mosquitoes were exposed for three minutes to the same surface, each one hour later), of which the mean values are calculated.
The test insects were Culex quinquefasciatus (adults, 3 days old). The compositions were evaluated for their ability to provide effective knock down after 3, 9, 15, and 30 minutes, 1, 2, 3, 4 and 24 hours (mortality). The experiments were performed in triplicate on glazed tile, but not repeated on wood.
Test Insects are Culex quinquefasciatus (adults, 3 days old). The Application provides the technical compounds were dissolved in acetone and applied as 1 ml solutions onto glazed tiles (15 cm×15 cm). An evaluation is provided at knock down after 3, 9, 15, and 30 minutes, 1, 2, 3, 4 and 24 hours (mortality). There are 3 replicates.
Test Insects: Culex quinquefasciatus (adults, 3 days old)
Application: The technical compounds were dissolved in acetone and applied as 1 ml solutions onto glazed tiles (15 cm×15 cm).
Evaluation: Knock down after 3, 9, 15, and 30 minutes, 1, 2, 3, 4 and 24 hours (mortality) […]
Application: The active ingredients were applied as 1 ml acetone solutions onto glazed tiles (15 cm×15 cm) […]
as §1, with “For the mosquitoes, the USDA Petri Dish Method is used. Ten” for “Ten”, “are” for “were”, “dish” for “dish,”, “is” for “was”, “after. […]” for “after.”

Compound | % KD and Mortality (3′) | % KD and Mortality (9′) | % KD and Mortality (15′) | % KD and Mortality (30′) | % KD and Mortality (1 h) | % KD and Mortality (2 h) | % KD and Mortality (3 h) | % KD and Mortality (4 h) | % KD and Mortality (24 h (mortality)) | efficacy enhancement of the insecticide by the additive (summary in words) | efficacy enhancement of the insecticide by the additive (summary in words) (listed as Dimethyl sebacate) | efficacy enhancement of the insecticide by the additive (summary in words) (listed as Sebacic acid dibenzyl ester)
O=C(CCCCCCCCC(=O)ON1C(=O)CCC1=O)ON1C(=O)CCC1=O | 0% | 0% | 0% | 0% | 0% | 0% | 0% | 0% | 0% |  |  | 
O=C(O)CC(O)(CC(=O)O)C(=O)O [citric acid] |  |  |  |  |  |  |  |  |  | better efficacy of bendiocarb alone |  | 
CC1(C)CC(O)CC(C)(C)N1 [Derivative 7, 4-Hydroxy-2,2,6,6-tetramethylpiperidine] |  |  |  |  |  |  |  |  |  | superior to Compound A in the first test and inferior in the second test |  | 
COC(=O)CCCCCCCCC(=O)OC [Derivative 1, Dimethyl sebacate] |  |  |  |  |  |  |  |  |  | acted weaker in both tests | no efficacy enhancement | 
CC1(C)CC(OC(=O)CCCCCCCCC(=O)OC2CC(C)(C)NC(C)(C)C2)CC(C)(C)N1 | 0% | 0% | 0% | 0% | 3% | 0% | 3% | 3% | 17% |  |  | 
O=C(CCCCCCCCC(=O)OCc1ccccc1)OCc1ccccc1 [Derivative 3, Sebacic acid dibenzyl ester] |  |  |  |  |  |  |  |  |  | superior to Compound A (first test) or equal (second test) |  | superior to Compound A; also recorded: improved markedly the efficacy of bendiocarb
O=C(O)CCCCCCCCC(=O)O [1% Sebacic acid] | 3% | 3% | 3% | 3% | 3% | 3% | 3% | 3% | 13% |  |  | 
